US20240376091A1, “THIADIAZOLEAMIDE DERIVATIVES AND THEIR APPLICATIONS” (ZHEJIANG UNIVERSITY, priority 2021, published 2024)

Biological target: T1, AR (Homo sapiens, UniProt P10275, T878A)
T1 construct: into the androgen-dependent PCa cells (LNCaP); endogenous in cells; host or cells: LNCaP-ARR2PB-eGFP
T1 sequence (P10275 1-920 T878A): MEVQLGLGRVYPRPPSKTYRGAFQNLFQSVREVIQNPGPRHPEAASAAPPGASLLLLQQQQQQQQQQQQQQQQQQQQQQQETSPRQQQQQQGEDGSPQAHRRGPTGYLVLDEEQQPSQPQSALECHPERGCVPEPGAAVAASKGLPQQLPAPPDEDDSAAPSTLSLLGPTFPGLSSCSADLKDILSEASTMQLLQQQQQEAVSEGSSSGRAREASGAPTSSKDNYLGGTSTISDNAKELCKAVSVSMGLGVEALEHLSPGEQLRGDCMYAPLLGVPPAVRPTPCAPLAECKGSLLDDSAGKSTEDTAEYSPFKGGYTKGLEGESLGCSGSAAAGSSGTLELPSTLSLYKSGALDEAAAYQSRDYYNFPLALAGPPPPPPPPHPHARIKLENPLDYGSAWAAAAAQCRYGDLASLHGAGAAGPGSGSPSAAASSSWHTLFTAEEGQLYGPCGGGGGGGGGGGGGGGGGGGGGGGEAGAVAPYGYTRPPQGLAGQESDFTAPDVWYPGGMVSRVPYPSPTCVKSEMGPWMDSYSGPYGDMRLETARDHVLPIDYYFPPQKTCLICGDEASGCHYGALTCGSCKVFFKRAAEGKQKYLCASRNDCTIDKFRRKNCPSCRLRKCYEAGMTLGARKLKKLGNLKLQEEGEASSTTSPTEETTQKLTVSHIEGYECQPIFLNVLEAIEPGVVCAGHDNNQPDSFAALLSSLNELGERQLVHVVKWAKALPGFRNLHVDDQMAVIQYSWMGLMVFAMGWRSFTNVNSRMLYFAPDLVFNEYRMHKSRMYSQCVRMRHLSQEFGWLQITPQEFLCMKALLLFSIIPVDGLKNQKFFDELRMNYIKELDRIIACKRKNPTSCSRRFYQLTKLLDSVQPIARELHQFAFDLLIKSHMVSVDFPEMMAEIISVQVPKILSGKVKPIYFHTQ
Test: AR transcriptional activity, LNCaP-ARR2PB-eGFP reporter cells
Assay type: cell-based
Details: read-out: IC50 AR transcriptional activities
Source text: Detection principles: We conducted a stable transfection of promoter ARR2PB known for its strong AR responsiveness, into the androgen-dependent PCa cells (LNCaP). The expression of enhanced green fluorescent protein (eGFP) is depending on the degree of activation of AR. Therefore, LNCaP-ARR2PB-eGFP cell line could quantitatively determine the AR antagonistic activities of the compounds by evaluating the expression of eGFP.

| IC50 [µM] | SMILES |
| --- | --- |
| 1.57 | CC(O)Cc1nsc(NC(=O)c2cc(-c3cccc(C(F)(F)F)c3)oc2C(F)(F)F)n1 (stereo not drawn) [Compound E-12, N-(3-(2-hydroxypropyl)-1,2,4-thiadiazol-5-yl)-2-(trifluoromethyl)-5-(3-(trifluoromethyl)phenyl)furan-3-carboxamide] |
| 17.6 | COc1cccc(-c2cc(C(=O)Nc3nc(CC(C)N4CCOCC4)ns3)oc2C)c1 (stereo not drawn) [Compound F-8, 4-(3-Methoxyphenyl)-5-methyl-N-(3-(2-morpholinopropyl)-1,2,4-thiadiazol-5-yl)furan-2-carboxamide] |
| 15.6 | Cc1oc(C(=O)Nc2nc(CN3CCOCC3)ns2)cc1-c1cccc(OC(F)(F)F)c1 [Compound F-27, 5-Methyl-N-(3-(morpholinomethyl)-1,2,4-thiadiazol-5-yl)-4-(3-(trifluoromethoxy)phenyl)furan-2-carboxamide] |
| 13.9 | CC(Cc1nsc(NC(=O)c2cc(-c3cccc(C(F)(F)F)c3)co2)n1)N1CCCC1 (stereo not drawn) [Compound G-6, N-(3-(2-(pyrrolidin-1-yl)propyl)-1,2,4-thiadiazol-5-yl)-4-(3-(trifluoromethyl)phenyl) furan-2-carboxamide] |
| 23.5 | Cc1oc(C(=O)Nc2nc(CC(C)N3CCOCC3)ns2)cc1-c1cccc(OC(F)(F)F)c1 (stereo not drawn) [Compound F-9, 5-Methyl-N-(3-(2-morpholinopropyl)-1,2,4-thiadiazol-5-yl)-4-(3-(trifluoromethoxy)phenyl)furan-2-carboxamide] |
| 7.54 | CC(Cc1nsc(NC(=O)c2cc(-c3cccc(C#N)c3)oc2C(F)(F)F)n1)N1CCOCC1 (stereo not drawn) [Compound E-8, 5-(3-Cyanophenyl)-N-(3-(2-morpholinopropyl)-1,2,4-thiadiazol-5-yl)-2-(trifluoromethyl)furan-3-carboxamide] |
| 0.97 | CC(Cc1nsc(NC(=O)c2cc(-c3cccc(OC(F)F)c3)oc2C(F)(F)F)n1)N1CCN(C)CC1 (stereo not drawn) [Compound E-11, 5-(3-(Difluoromethoxy)phenyl)-N-(3-(2-(4-methylpiperazin-1-yl)propyl)-1,2,4-thiadiazol-5-yl)-2-(trifluoromethyl)furan-3-carboxamide] |
| 19.1 | Cc1oc(C(=O)Nc2nc(CCl)ns2)cc1-c1cccc(C(F)(F)F)c1 [Compound F-19, N-(3-(chloromethyl)-1,2,4-thiadiazol-5-yl)-5-methyl-4-(3-(trifluoromethyl)phenyl)furan-2-carboxamide] |
| 15.5 | Cc1oc(C(=O)Nc2nc(CN3CCCCC3)ns2)cc1-c1cccc(C#N)c1 [Compound F-25, 4-(3-Cyanophenyl)-5-methyl-N-(3-(piperidin-1-ylmethyl)-1,2,4-thiadiazol-5-yl)furan-2-carboxamide] |
| 1.32 | O=C(Nc1nc(CCl)ns1)c1cc(-c2cccc(C(F)(F)F)c2)oc1C(F)(F)F [Compound E-32, N-(3-(chloromethyl)-1,2,4-thiadiazol-5-yl)-2-(trifluoromethyl)-5-(3-(trifluoromethyl)phenyl)furan-3-carboxamide] |

Continued, compound first:

| SMILES | IC50 [µM] |
| --- | --- |
| Cc1oc(-c2cccc(C(F)(F)F)c2)cc1C(=O)Nc1nc(CC(C)N)ns1 (stereo not drawn) [Compound A-66, N-(3-(2-aminopropyl)-1,2,4-thiadiazol-5-yl)-2-methyl-5-(3-(trifluoromethyl)phenyl)furan-3-carboxamide] | 1.39 |
| COc1cccc(-c2cc(C(=O)Nc3nc(CC(C)=O)ns3)cs2)c1 [Compound D-3, 5-(3-Methoxyphenyl)-N-(3-(2-oxopropyl)-1,2,4-thiadiazol-5-yl)thiophene-3-carboxamide] | 13.6 |
| CC(O)(Cc1nsc(NC(=O)c2csc(-c3cccc(C(F)(F)F)c3)c2)n1)C(F)(F)F [Compound D-25, N-(3-(3,3,3-trifluoro-2-hydroxy-2-methylpropyl)-1,2,4-thiadiazol-5-yl)-5-(3-(trifluoro-methyl)phenyl)thiophene-3-carboxamide] | 33 |
| CC(=O)Cc1nsc(NC(=O)c2cc(-c3cccc(NC(C)=O)c3)oc2C)n1 [Compound A-25, 5-(3-Acetamidophenyl)-2-methyl-N-(3-(2-oxopropyl)-1,2,4-thiadiazol-5-yl)furan-3-carboxamide] | 13.6 |
| COc1cccc(-c2cc(C(=O)Nc3nc(CC(C)N4CCCC4)ns3)c(C)s2)c1 (stereo not drawn) [Compound C-14, 5-(3-Methoxyphenyl)-2-methyl-N-(3-(2-(pyrrolidin-1-yl)propyl)-1,2,4-thiadiazol-5-yl)thiophene-3-carboxamide] | 19.4 |
| CC(Cc1nsc(NC(=O)c2coc(-c3cccc(OC(F)F)c3)c2)n1)N1CCN(C)CC1 (stereo not drawn) [Compound B-19, 5-(3-(Difluoromethoxy)phenyl)-N-(3-(2-(4-methylpiperazin-1-yl)propyl)-1,2,4-thiadiazol-5-yl)furan-3-carboxamide] | 59.3 |
| Cc1oc(-c2cccc(C#N)c2)cc1C(=O)Nc1nc(CC(C)N2CCN(C)CC2)ns1 (stereo not drawn) [Compound A-56, 5-(3-Cyanophenyl)-2-methyl-N-(3-(2-(4-methylpiperazin-1-yl)propyl)-1,2,4-thiadiazol-5-yl)furan-3-carboxamide] | 0.84 |
| CC(=O)Cc1nsc(NC(=O)c2cc(-c3cccc(C#N)c3)oc2C)n1 [Compound A-3, 5-(3-Cyanophenyl)-2-methyl-N-(3-(2-oxopropyl)-1,2,4-thiadiazol-5-yl)furan-3-carboxamide] | 0.32 |
| COc1cccc(-c2cc(C(=O)Nc3nc(CC(C)N4CCCCC4)ns3)co2)c1 (stereo not drawn) [Compound B-14, 5-(3-Methoxyphenyl)-N-(3-(2-(piperidin-1-yl)propyl)-1,2,4-thiadiazol-5-yl)furan-3-carboxamide] | 33.6 |
| CCN(CC)Cc1nsc(NC(=O)c2cc(-c3cccc(OC(F)(F)F)c3)oc2C)n1 [Compound A-123, N-(3-((diethylamino)methyl)-1,2,4-thiadiazol-5-yl)-2-methyl-5-(3-(trifluoromethoxy)phenyl)furan-3-carboxamide] | 0.59 |
| CC(=O)Cc1nsc(NC(=O)c2cc(-c3cccc(O)c3)oc2C)n1 [Compound A-26, 5-(3-Hydroxyphenyl)-2-methyl-N-(3-(2-oxopropyl)-1,2,4-thiadiazol-5-yl)furan-3-carboxamide] | 3.21 |
| Cc1sc(-c2cccc(OC(F)(F)F)c2)cc1C(=O)Nc1nc(CN2CCCC2)ns1 [Compound C-53, 2-Methyl-N-(3-(pyrrolidin-1-ylmethyl)-1,2,4-thiadiazol-5-yl)-5-(3-(trifluoromethoxy)phenyl)thiophene-3-carboxamide] | 14.8 |
| Cc1oc(-c2cccc(C(F)(F)F)c2)cc1C(=O)Nc1nc(CC(C)N2CCCCC2)ns1 (stereo not drawn) [Compound A-41, 2-Methyl-N-(3-(2-(piperidin-1-yl)propyl)-1,2,4-thiadiazol-5-yl)-5-(3-(trifluoromethyl)phenyl)furan-3-carboxamide] | 0.17 |
| CC(=O)Cc1nsc(NC(=O)c2cc(-c3cccc(C#N)c3)sc2C)n1 [Compound C-2, 5-(3-Cyanophenyl)-2-methyl-N-(3-(2-oxopropyl)-1,2,4-thiadiazol-5-yl)thiophene-3-carboxamide] | 33.3 |
| CN1CCN(Cc2nsc(NC(=O)c3coc(-c4cccc(OC(F)F)c4)c3)n2)CC1 [Compound B-58, 5-(3-(Difluoromethoxy)phenyl)-N-(3-((4-methylpiperazin-1-yl)methyl)-1,2,4-thiadiazol-5-yl)furan-3-carboxamide] | 32.6 |
| Cc1oc(-c2cccc(OC(F)(F)F)c2)cc1C(=O)Nc1nc(CN2CCCC2)ns1 [Compound A-124, 2-Methyl-N-(3-(pyrrolidin-1-ylmethyl)-1,2,4-thiadiazol-5-yl)-5-(3-(trifluoromethoxy)phenyl)furan-3-carboxamide] | 0.04 |
| CC(=O)Cc1nsc(NC(=O)c2cc(-c3cccc(C(=O)O)c3)oc2C)n1 [Compound A-29, 3-(5-Methyl-4-((3-(2-oxopropyl)-1,2,4-thiadiazol-5-yl)carbamoyl)furan-2-yl)benzoic acid] | 0.94 |
| CN(C)Cc1nsc(NC(=O)c2csc(-c3cccc(C#N)c3)c2)n1 [Compound D-47, 5-(3-Cyanophenyl)-N-(3-((dimethylamino)methyl)-1,2,4-thiadiazol-5-yl)thiophene-3-carboxamide] | 25.3 |
| Cc1oc(-c2cccc(C(F)(F)F)c2)cc1C(=O)Nc1nc(CN(C)C)ns1 [Compound A-106, N-(3-((dimethylamino)methyl)-1,2,4-thiadiazol-5-yl)-2-methyl-5-(3-(trifluoromethyl)phenyl)furan-3-carboxamide] | 1.67 |
| CC(=O)Cc1nsc(NC(=O)c2cc(-c3cccc(F)c3)oc2C)n1 [Compound A-7, 5-(3-Fluorophenyl)-2-methyl-N-(3-(2-oxopropyl)-1,2,4-thiadiazol-5-yl)furan-3-carboxamide] | 1.16 |
